Values of other authors in patent EP0137640A1, “Chain extended analogues of methotrexate and aminopterin” (DANA-FARBER CANCER INSTITUTE, INC., priority 1983, dated 1985).

Tested on: carboxypeptidase Gl
Details: as described by Chabner et al. (1972) Nature, 239, 395

CN(Cc1cnc2nc(N)nc(N)c2n1)c1ccc(C(=O)N[C@@H](CCC(=O)O)C(=O)O)cc1 [MTX, 4-amino-4-deoxy-N^10-methyl-pteroylglutamic acid]
cleavage by carboxypeptidase Gl: rapidly cleaved
